Results on three molecules are retold here after BindingDB's records for doi:10.1016/s0960-894x(99)00486-2 (Dupont Pharmaceuticals, 1999).

Some results are limits rather than exact numbers.

The experiment addresses T1, Gag-Pol polyprotein [588-1027]/[588-1147] (Human immunodeficiency virus 1, UniProt P04585).
T1 construct: 588-1027; 588-1147
Kind of experiment: HIV-1 RT Assay. The following applies: pH 8.2; 37 °C. An excerpt: The IC50 of reverse transcriptase is the concentration that inhibits 50% of recombinant HIV-1 RT RNA-directed DNA polymerase activity in vitro.
In the case of `O=C1Nc2c(cc(F)c(F)c2F)C(C#CC2CC2)(C(F)(F)F)O1` (stereo not drawn) [4-(2-cyclopropylethynyl)-6,7,8-trifluoro-4-(trifluoromethyl)-2,4-dihydro-1H-3,1-benzoxazin-2-one], the IC50 was above 2000 nM.

For `O=C1Nc2ccc(-c3ccccc3)cc2C(C#CC2CC2)(C(F)(F)F)O1` (stereo not drawn) [4-(2-cyclopropylethynyl)-6-phenyl-4-(trifluoromethyl)-2,4-dihydro-1H-3,1-benzoxazin-2-one], the half-maximal inhibitory concentration (IC50) was above 2000 nM.

In turn, `O=C1Nc2c(Cl)cc(Cl)cc2C(C#CC2CC2)(C(F)(F)F)O1` (stereo not drawn) [6,8-dichloro-4-(2-cyclopropylethynyl)-4-(trifluoromethyl)-2,4-dihydro-1H-3,1-benzoxazin-2-one] yielded an IC50 above 2000 nM.
